# Reference: paper PMC5298231, “The Malaria Parasite's Lactate Transporter PfFNT Is the Target of Antiplasmodial Compounds Identified in Whole Cell Phenotypic Screens” (PLoS Pathogens, 2017)
# Where two headings read alike, the source gives them in different places. Peptide text beside a SMILES is read from it.
# System: erythrocytes infected with 3D7 trophozoites
# Type: cell-based, Plasmodium falciparum
SMILES,"Ratio of metabolite abundance, Exp1_1hr (sheet Ratio, Exp1, 1hr)","Ratio of metabolite abundance, Exp1_3hr (sheet Ratio, Exp1, 3hr)","Ratio of metabolite abundance, Exp1_6hr (sheet Ratio, Exp1, 6hr)","Ratio of metabolite abundance, Exp2_1hr (sheet Ratio, Exp2, 1hr)","Ratio of metabolite abundance, Exp2_3hr (sheet Ratio, Exp2, 3hr)","Ratio of metabolite abundance, Exp2_6hr (sheet Ratio, Exp2, 6hr)","Ratio of metabolite abundance, Exp3_1hr (sheet Ratio, Exp3, 1hr)","Ratio of metabolite abundance, Exp3_3hr (sheet Ratio, Exp3, 3hr)","Ratio of metabolite abundance, Exp3_6hr (sheet Ratio, Exp3, 6hr)",further results
CC(C)[C@H](NC(=O)[C@H](C)NC(=O)[C@@H]1CCCN1)C(=O)N[C@@H](Cc1c[nH]cn1)C(=O)O [PAVH],0.3897,0.1614,0.8308,0.6106,0.3696,0.9246,0.514,0.3038,1.108,–
CC(C)[C@H](NC(=O)[C@H](C)NC(=O)[C@H](CC(=O)O)NC(=O)[C@@H]1CCCN1)C(=O)O [PDAV] (H-PDAV-OH),1.025,1.041,2.029,1.45,1.498,2.552,1.376,1.38,2.341,–
O=C(O)C[C@H](NC(=O)[C@@H]1CCCN1)C(=O)O [PD] (H-Pro-Asp-OH),1.093,0.9772,1.538,1.264,1.209,2.9187,1.287,1.3146,2.682,–
O=C(O)CC[C@H](NC(=O)[C@H](CCC(=O)O)NC(=O)[C@@H]1CCCN1)C(=O)O [PEE] (H-Pro-Glu-Glu-OH),1.088,0.6949,2.228,1.338,0.8845,1.822,1.136,1.044,2.15,–
O=C(O)CC[C@H](NC(=O)[C@@H]1CCCN1)C(=O)O [PE] (H-Pro-Glu-OH),2.339,1.989,3.207,2.25,1.648,3.078,2.352,2.042,3.469,–
O=C(O)[C@H](Cc1ccccc1)NC(=O)[C@H](Cc1cnc[nH]1)NC(=O)[C@@H]1CCCN1 [PHF] (H-Pro-His-Phe-OH),1.822,0.7039,1.872,2.081,1.353,2.7014,2.437,1.168,1.525,–
CC(C)[C@H](NC(=O)[C@@H]1CCCN1C(=O)[C@@H]1CCCN1)C(=O)N[C@@H](CCC(N)=O)C(=O)O [PPVQ] (H-PPVQ-OH),1.0595,0.6401,0.763,1.014,0.8051,0.8204,0.973,0.9388,0.9472,–
CC(C)[C@H](NC(=O)[C@@H]1CCCN1)C(=O)N[C@@H](CC(N)=O)C(=O)N[C@@H](Cc1ccccc1)C(=O)O [PVNF] (H-PVNF-OH),0.6556,0.3908,1.343,0.8248,0.5795,1.295,0.9151,0.7449,2.085,–
CC(C)[C@H](NC(=O)[C@@H]1CCCN1)C(=O)N[C@@H](CCC(N)=O)C(=O)N[C@@H](C)C(=O)O [PVQA] (H-PVQA-OH),0.5661,0.3168,0.8691,0.7152,0.5356,0.8856,0.5318,0.3152,1.03,–
CC(C)[C@H](NC(=O)[C@@H]1CCCN1)C(=O)N[C@@H](CCC(N)=O)C(=O)O [PVQ] (H-Pro-Val-Gln-OH),1.621,0.8912,2.731,1.963,1.4303,3.535,1.9381,1.515,2.354,–
O=C(O)C1CCCCN1 (stereo not drawn) [Pipecolate],1.3778,1.045,1.52,1.38,1.052,2.481,1.352,1.13,2.281,–
O=C[C@H](O)[C@H](O)[C@H](O)COP(=O)(O)O [Ribose-5-phosphate],2.775,3.2124,2.288,1.429,1.2203,1.178,1.678,1.594,1.155,–
Nc1ncnc2c1ncn2[C@@H]1O[C@H](CSCC[C@H](N)C(=O)O)[C@@H](O)[C@H]1O [S-Adenosyl-L-homocysteine],0.9683,0.7021,0.8395,0.9429,0.8753,1.175,0.839,0.8468,0.8042,–
CC(C)C[C@H](NC(=O)CNC(=O)[C@H](CC(=O)O)NC(=O)[C@@H](N)CO)C(=O)N[C@@H](C)C(=O)O [SDGLA] (H-SDGLA-OH),0.8703,0.6348,0.4701,0.9687,0.9448,0.8041,0.872,0.7497,0.5099,–
N[C@@H](CO)C(=O)N[C@@H](Cc1ccccc1)C(=O)NCC(=O)N[C@@H](CC(=O)O)C(=O)O [SFGD] (H-SFGD-OH),0.9984,0.657,0.8343,0.9574,0.8881,0.8874,0.972,0.9269,0.9926,–
O=C(COP(=O)(O)O)[C@@H](O)[C@H](O)[C@H](O)[C@H](O)COP(=O)(O)O [Sedoheptoluse bisphosphate],2.263,0.7031,0.6514,1.522,1.277,0.7611,1.031,0.8186,0.6336,–
O=CCCC(=O)O [Succinate semialdehyde],0.6229,0.6245,0.614,0.9462,0.5836,0.7757,0.7696,0.6244,0.8444,–
O=C(O)CCC(=O)O [Succinate],–,–,–,–,–,–,–,–,–,"Log2 Exp1_1hr: 0.7494; Log2 Exp1_3hr: -0.1278; Log2 Exp1_6hr: -0.06195; Log2 Exp2_1hr: 0.5818; Log2 Exp2_3hr: -0.0254; Log2 Exp2_6hr: 0.5995; Log2 Exp3_1hr: 0.1613; Log2 Exp3_3hr: -0.5854; Log2 Exp3_6hr: 0.007182; Ratio of metabolite abundance, Exp1_1hr: 1.681; Ratio of metabolite abundance, Exp1_3hr: 0.9152; Ratio of metabolite abundance, Exp1_6hr: 0.958; Ratio of metabolite abundance, Exp2_1hr: 1.497; Ratio of metabolite abundance, Exp2_3hr: 0.9825; Ratio of metabolite abundance, Exp2_6hr: 1.515; Ratio of metabolite abundance, Exp3_1hr: 1.118; Ratio of metabolite abundance, Exp3_3hr: 0.6665; Ratio of metabolite abundance, Exp3_6hr: 1.005"
CC(C)[C@H](NC(=O)[C@H](CC(N)=O)NC(=O)[C@@H](N)[C@@H](C)O)C(=O)N[C@@H](CCCCN)C(=O)O [TNVK] (H-TNVK-OH),0.4459,0.2171,0.7349,0.5855,0.3584,0.8812,0.5059,0.3409,1.2,–
